The record followed here is patent EP0900210B1, “ANTIVIRALLY ACTIVE HETEROCYCLIC AZAHEXANE DERIVATIVES” (Novartis AG, priority 1996, dated 1997).

The first experiment addresses T1, HIV-1-protease (Human immunodeficiency virus type 1 group M subtype B, UniProt P04585).
T1 construct: made in house
As to the kind of experiment: Inhibition of HIV-1-protease with icosapeptide substrate […] (HPLC). It counts as biochemical.
Details: not given
On the procedure:
The inhibitory action of the compounds of formula I on the proteolytic activity of HIV-1-protease can be shown, for example, according to known procedures (see A. D. Richards et al., J. Biol. Chem. 265(14), 7733-7736 (1990)). In that method the inhibition of the action of HIV-1-protease (preparation: see S. Billich et al., J. Biol. Chem. 263(34), 17905-17908 (1990)) is measured in the presence of the icosapeptide […] (a synthetic substrate of HIV-1-protease, prepared by peptide synthesis in accordance with known procedures (see J. Schneider et al., Cell 54, 363-368 (1988)), which contains as substrate analogue one of the cleavage sites of the gag-precursor protein (natural substrate of HIV-1-protease). That substrate and its cleavage products are analysed by high performance liquid chromatography (HPLC).
The test compound is dissolved in dimethyl sulfoxide. The enzymatic test is carried out by adding suitable dilutions of the inhibitor in 20 mM β-morpholinoethanesulfonic acid (MES) buffer pH 6.0 to the test mixture. That mixture consists of the above-mentioned icosapeptide (122 µM) in 20 mM MES-buffer pH 6.0. 100 µl are used per test batch. The reaction is started by the addition of […] of HIV-1-protease solution and is stopped after one hour's incubation at 37°C by the addition of 10 µl of 0.3M HClO4. After centrifugation of the sample at 10 000 x g for 5 minutes, 20 µl of the resulting supernatant are applied to a 125 x 4.6 mm Nucleosil® C18-5m-HPLC column (reversed-phase material supplied by Macherey & Nagel, Düren, FRG, based on silica gel that has been charged with C18alkyl chains). The uncleaved icosapeptide and its cleavage products are eluted from the column by means of the following gradient: 100 % eluant 1 → 50 % eluant 1 + 50 % eluant 2 (eluant 1: 10 % acetonitrile, 90 % H2O, 0.1 % trifluoroacetic acid (TFA); eluant 2: 75 % acetonitrile, 25 % H2O, 0.08 % TFA) for 15 minutes, throughflow rate 1 ml/min. The quantification of the eluted peptide fragments is carried out by measuring the peak height of the cleavage product at 215 nm.
Using the test system described above with the icosapeptide […], the IC50 values given below are obtained for the following Examples: […]
On to `CC[C@H](C)[C@H](NC(=O)OC)C(=O)NN(Cc1ccc(-c2ccccn2)cc1)C[C@H](O)[C@H](Cc1ccccc1)NC(=O)[C@@H](NC(=O)OC)C(C)C` [Example 51, 1-[4-(Pyridin-2-yl)-phenyl]-4(S)-hydroxy-2-N-(N-methoxy-carbonyl-(L)-iso-leucyl)amino-5(S)-N-(N-methoxycarbonyl-(L)-valyl)amino-6-phenyl-2-azahexane], for which the midpoint of inhibition, the IC50, lay at 34 nM.
On to `COC(=O)N[C@H](C(=O)N[C@@H](Cc1ccccc1)[C@@H](O)CN(Cc1ccc(-c2ccccn2)cc1)NC(=O)[C@@H](NC(=O)OC)C(C)(C)C)C(C)C` [Example 49, 1-[4-(Pyridin-2-yl)-phenyl]-4(S)-hydroxy-2-N-(N-methoxy-carbonyl-(L)-tert-leucyl)amino-5(S)-N-(N-methoxycarbonyl-(L)-valyl)amino-6-phenyl-2-azahexane], for which inhibition was half-maximal at 20 nM (IC50).

The same experiment, now with this note: icosapeptide RRSNQVSQNYPIVQNIQGRR 122 µM, 20 mM MES pH 6.0, one hour at 37°C; read-out: IC50.
For “1-[4-(Pyrazin-2-yl)-phenyl]-4(S)-hydroxy-2-[N-(N-methoxycarbonyl-(L)-valyl)amino]-5(S)-[N-(N-methoxycarbonyl-(L)-tert-leucyl)amino]-6-phenyl-2-azahexane [Example 44]”, the IC50 (commonly the midpoint of a concentration-inhibition curve) was 29 nM.

Staying with this experiment, now noted: icosapeptide […] 122 µM, 20 mM MES pH 6.0, one hour at 37°C; read-out: IC50.
With `CC[C@H](C)[C@H](NC(=O)OC)C(=O)NN(Cc1ccc(-c2cncs2)cc1)C[C@H](O)[C@H](Cc1ccccc1)NC(=O)[C@@H](NC(=O)OC)C(C)C` [Example 9, 1-[4-(Thiazol-5-yl)-phenyl]-4(S)-hydroxy-2-N-(N-methoxycarbonyl-(L)-isoleucyl)amino-5(S)-N-(N-methoxycarbonyl-(L)-valyl)amino-6-phenyl-2-azahexane], the IC50 is 19 nM.
Same read-out and setting: as for `COC(=O)N[C@H](C(=O)N[C@@H](Cc1ccccc1)[C@@H](O)CN(Cc1ccc(-c2cncs2)cc1)NC(=O)[C@@H](NC(=O)OC)C(C)C)C(C)C` [Example 1, 1-[4-(Thiazol-5-yl)-phenyl]-4(S)-hydroxy-5(S)-2,5-bis[N-(N-methoxycarbonyl-(L)-valyl)amino]-6-phenyl-2-azahexane], the figure is 32 nM; as for `CCOC(=O)N[C@H](C(=O)NN(Cc1ccc(-c2cncs2)cc1)C[C@H](O)[C@H](Cc1ccccc1)NC(=O)[C@@H](NC(=O)OC)[C@@H](C)CC)C(C)C` [Example 14, 1-[4-(Thiazol-5-yl)-phenyl]-4(S)-hydroxy-2-N-(N-ethoxycarbonyl-(L)-valyl)-amino-5(S)-N-(N-methoxycarbonyl-(L)-iso-leucyl)amino-6-phenyl-2-azahexane], 31 nM.
Same read-out and setting: the same measure for `COC(=O)N[C@H](C(=O)N[C@@H](Cc1ccccc1)[C@@H](O)CN(Cc1ccc(-c2nccs2)cc1)NC(=O)[C@@H](NC(=O)OC)C(C)C)C(C)C` [Example 20, 1-[4-(Thiazol-2-yl)-phenyl]-4(S)-hydroxy-5(S)-2,5-bis[N-(N-methoxycarbonyl-(L)-valyl)amino]-6-phenyl-2-azahexane]: 15 nM.
Take `COC(=O)N[C@H](C(=O)N[C@@H](Cc1ccccc1)[C@@H](O)CN(Cc1ccc(-c2cnccn2)cc1)NC(=O)[C@@H](NC(=O)OC)C(C)C)C(C)C` [Example 40, 1-[4-(Pyrazin-2-yl)-phenyl]-4(S)-hydroxy-5(S)-2,5-bis[N-(N-methoxycarbonyl-(L)-valyl)amino]-6-phenyl-2-azahexane]: the IC50 came out at 21 nM.
The same measure, in the same setting: the same measure for `COC(=O)N[C@H](C(=O)N[C@@H](Cc1ccccc1)[C@@H](O)CN(Cc1ccc(-c2nnn(C(C)(C)C)n2)cc1)NC(=O)[C@@H](NC(=O)OC)C(C)(C)C)C(C)(C)C` [Example 34, 1-[4-(2-tert-Butyl-2H-tetrazol-5-yl)-phenyl]-4(S)-hydroxy-5(S)-2,5-bis[N-(N-methoxycarbonyl-(L)-tert-leucyl)amino]-6-phenyl-2-azahexane]: 72 nM.
On the same count and under the same terms, as for `CC[C@H](C)[C@H](NC(=O)OC)C(=O)N[C@@H](Cc1ccccc1)[C@@H](O)CN(Cc1ccc(-c2ccccn2)cc1)NC(=O)[C@@H](NC(=O)OC)[C@@H](C)CC` [Example 47, [4-(Pyridin-2-yl)-phenyl]-4(S)-hydroxy-5(S)-2,5-bis[N-(N-methoxycarbonyl-(L)-iso-leucyl)amino]-6-phenyl-2-azahexane], the figure is 40 nM; as for `CCOC(=O)N[C@H](C(=O)NN(Cc1ccc(-c2nccs2)cc1)C[C@H](O)[C@H](Cc1ccccc1)NC(=O)[C@@H](NC(=O)OC)[C@@H](C)CC)C(C)C` [Example 22, 1-[4-(Thiazol-2-yl)-phenyl]-4(S)-hydroxy-2-N-(N-ethoxycarbonyl-(L)-valyl)amino-5(S)-N-(N-methoxycarbonyl-(L)-iso-leucyl)amino-6-phenyl-2-azahexane], 40 nM; as for `CC[C@H](C)[C@H](NC(=O)OC)C(=O)NN(Cc1ccc(-c2nnn(C)n2)cc1)C[C@H](O)[C@H](Cc1ccccc1)NC(=O)[C@@H](NC(=O)OC)C(C)(C)C` [Example 30, 1-[4-(2-Methyl-2H-tetrazol-5-yl)-phenyl]-4(S)-hydroxy-2-N-(N-methoxycarbonyl-(L)-iso-leucyl)amino-5(S)-N-(N-methoxycarbonyl-(L)-tert-leucyl)amino-6-phenyl-2-azahexane], 54 nM.
In the case of `COC(=O)N[C@H](C(=O)N[C@@H](Cc1ccccc1)[C@@H](O)CN(Cc1ccc(-c2ccccn2)cc1)NC(=O)[C@@H](NC(=O)OC)C(C)C)C(C)C` [Example 37, 1-[4-(Pyridin-2-yl)-phenyl]-4(S)-hydroxy-5(S)-2,5-bis[N-(N-methoxycarbonyl-(L)-valyl)amino]-6-phenyl-2-azahexane], the concentration for half-maximal inhibition (IC50) stood at 29 nM.
The same measure, in the same setting: as for `COC(=O)N[C@H](C(=O)N[C@@H](Cc1ccccc1)[C@@H](O)CN(Cc1ccc(-c2nnn(C(C)(C)c3ccccc3)n2)cc1)NC(=O)[C@@H](NC(=O)OC)C(C)(C)C)C(C)(C)C` [Example 25, 1-{4-[2-(1-Methyl-1-phenyl-ethyl)-2H-tetrazol-5-yl]-phenyl}-4(S)-hydroxy-5(S)-2,5-bis[N-(N-methoxycarbonyl-(L)-tert-leucyl)amino]-6-phenyl-2-azahexane], the figure is 100 nM; as for `COC(=O)N[C@H](C(=O)N[C@@H](Cc1ccccc1)[C@@H](O)CN(Cc1ccc(-c2nnn(C)n2)cc1)NC(=O)[C@@H](NC(=O)OC)C(C)(C)C)C(C)(C)C` [Example 27, 1-[4-(2-Methyl-2H-tetrazol-5-yl)-phenyl]-4(S)-hydroxy-5(S)-2,5-bis[N-(N-methoxycarbonyl-(L)-tert-leucyl)amino]-6-phenyl-2-azahexane], 27 nM.
Same read-out and setting: the same measure for `COC(=O)N[C@H](C(=O)NN(Cc1ccc(-c2cncs2)cc1)C[C@H](O)[C@H](Cc1ccccc1)NC(=O)[C@@H](NC(=O)OC)C(C)(C)C)C(C)C` [Example 2, 1-[4-(Thiazol-5-yl)-phenyl]-4(S)-hydroxy-2-N-(N-methoxycarbonyl-(L)-valyl)-amino-5(S)-N-(N-methoxycarbonyl-(L)-tert-leucyl)amino-6-phenyl-2-azahexane]: 14 nM; for `COC(=O)N[C@@H](CSC)C(=O)NN(Cc1ccc(-c2cncs2)cc1)C[C@H](O)[C@H](Cc1ccccc1)NC(=O)[C@@H](NC(=O)OC)C(C)(C)C` [Example 5, 1-[4-(Thiazol-5-yl)-phenyl]-4(S)-hydroxy-2-N-(N-methoxycarbonyl-(L)-S-methylcysteinyl)amino-5(S)-N-(N-methoxycarbonyl-(L)-tert-leucyl)amino-6-phenyl-2-azahexane]: 40 nM.
The same measure, in the same setting: as for `CC[C@H](C)[C@H](NC(=O)OC)C(=O)NN(Cc1ccc(-c2nccs2)cc1)C[C@H](O)[C@H](Cc1ccccc1)NC(=O)[C@@H](NC(=O)OC)C(C)C` [Example 18, 1-[4-(Thiazol-2-yl)-phenyl]-4(S)-hydroxy-2-N-(N-methoxycarbonyl-(L)-iso-leucyl)amino-5(S)-N-(N-methoxycarbonyl-(L)-valyl)amino-6-phenyl-2-azahexane], the figure is 25 nM.
Take `CCOC(=O)N[C@H](C(=O)NN(Cc1ccc(-c2ccccn2)cc1)C[C@H](O)[C@H](Cc1ccccc1)NC(=O)[C@@H](NC(=O)OC)C(C)C)C(C)C` [Example 52, 1-[4-(Pyridin-2-yl)-phenyl]-4(S)-hydroxy-2-N-(N-ethoxy-carbonyl-(L)-valyl)-amino-5(S)-N-(N-methoxycarbonyl-(L)-valyl)amino-6-phenyl-2-azahexane]: the half-maximal inhibitory concentration (IC50) turned out to be 34 nM.
With `COC(=O)N[C@H](C(=O)N[C@@H](Cc1ccccc1)[C@@H](O)CN(Cc1ccc(-c2nnn(C(C)(C)C)n2)cc1)NC(=O)[C@@H](NC(=O)OC)C(C)(C)C)C(C)C` [Example 35, 1-[4-(2-tert-Butyl-2H-tetrazol-5-yl)-phenyl]-4(S)-hydroxy-2-N-(N-methoxycarbonyl-(L)-tert-leucyl)amino-5(S)-N-(N-methoxycarbonyl-(L)-valyl)amino-6-phenyl-2-azahexane], the half-inhibitory concentration (IC50) came to 58 nM.
